# Laboratory results: ChEMBL document CHEMBL1146692, “Highly potent PDE4 inhibitors with therapeutic potential” (Bioorg Med Chem Lett, 2004)
# pIC50: −log10 of the molar value.
# Experiments:
# [1] = test system: Rattus norvegicus; test: Inhibition of LPS-induced TNF-alpha production in rats 0.5 hr after peroral administration; type: functional; conditions: po, read-out: ID50 (the source's name)
# [2] = molecular target: Phosphodiesterase 4 (Homo sapiens, UniProt P27815+Q08499+Q07343+Q08493); test: Inhibition of phosphodiesterase 4 (PDE4) prepared from human U937 cells; type: cell-based; conditions: u-937
# [3] = test system: Rattus norvegicus; test: Inhibition of LPS-induced TNF-alpha production in rats at 3 mg/kg peroral dose after 0.5 hr; type: functional; conditions: route oral
# [4] = species on record: Homo sapiens; test: Inhibition of LPS-induced TNF-alpha production in human whole blood; type: functional, organism-based
# [5] = test system: Cavia porcellus; test: Inhibition of SRS-A-mediated bronchoconstriction and airway microvascular leakage in sensitized guinea pigs at 0.5 mg/kg 1 hr after oral dose; type: functional; conditions: Lung, read-out: ID50 (the source's name)
# [6] = test system: Rattus norvegicus; test: Inhibition of gastric emptying in rats after peroral administration; type: functional; conditions: Stomach, po, read-out: ID50 (the source's name)
# [7] = test system: Rattus norvegicus; test: Inhibition of LPS-induced TNF-alpha production in rats at 1 mg/kg peroral dose after 0.5 hr; type: functional; conditions: route oral
# [8] = test system: Cavia porcellus; test: Inhibition of SRS-A-mediated bronchoconstriction and airway microvascular leakage in sensitized guinea pigs at 0.15 mg/kg 1 hr after oral dose; type: functional; conditions: Lung, read-out: ID50 (the source's name)
Structure (SMILES),ED50 [1] [mg/kg],IC50 [2] [nM],also measured
COc1ccc(C2(C#N)CCN(CC(=O)NO)CC2)cc1OC1CCC1,0.03,0.18,
CCOc1ccc(C2(C#N)CCN(CC(=O)O)CC2)cc1OC1CCCC1,,2500,
CC(C)Oc1ccc(C2(C#N)CCN(CC(=O)NO)CC2)cc1OC1CCCC1,,> 30,
COc1ccc(C2(C#N)CCN([C@H](C)C(=O)NO)CC2)cc1OC1CCCC1,,0.91,inhibition in vivo at 3 mg/kg [3]: 26%
COc1ccc(C2(C#N)CCN([C@H](C)C(=O)O)CC2)cc1OC1CCCC1,,> 300,
COc1ccc(C2(C#N)CCN(CC(=O)O)CC2)cc1OC1CCC1,,> 100,
COc1ccc(C2(C#N)CCN(CC(=O)O)CC2)cc1OC1CCCC1,,66,inhibition in vivo at 3 mg/kg [3]: 74%
CCOc1ccc(C2(C#N)CCN(CC(=O)NO)CC2)cc1OC1CCCC1,0.7,6.2,
CC(C)Oc1ccc(C2(C#N)CCN(CC(=O)O)CC2)cc1OC1CCCC1,,> 1000,
N#CC1(c2ccc(OC(F)F)c(OC3CCCC3)c2)CCN(CC(=O)O)CC1,1.1,65,pIC50 [4]: 6.08; ED50 [5]: 4.2 mg/kg; ED50 [6]: 4.7 mg/kg
COc1ccc(C2(C#N)CCN(CC(=O)NO)CC2)cc1OC(C)C,0.09,1,
COc1ccc(C2(C#N)CCN(C(C)(C)C(=O)O)CC2)cc1OC1CCCC1,,> 1000,
COc1ccc(C2(C#N)CCN(C3(C(=O)O)CC3)CC2)cc1OC1CCCC1,,> 1000,
COc1ccc(C2(C#N)CCN([C@@H](C)C(=O)NO)CC2)cc1OC1CCCC1,,5.9,inhibition in vivo at 3 mg/kg [3]: 49%
COc1ccc(C2(C#N)CCN([C@@H](C)C(=O)O)CC2)cc1OC1CCCC1,,> 300,
COc1ccc(C2(C#N)CCN(CC(=O)O)CC2)cc1OCC1CC1,,> 100,inhibition in vivo at 1 mg/kg [7]: 12%
COc1ccc(C2(C#N)CCN(CC(=O)O)CC2)cc1OC1Cc2ccccc2C1,,67,inhibition in vivo at 3 mg/kg [3]: 29%
COc1ccc(C2(C#N)CCN(C3(C(=O)NO)CC3)CC2)cc1OC1CCCC1,2,4.6,
COc1ccc(C2(C#N)CCN(CC(=O)NO)CC2)cc1OCC1CC1,0.03,0.29,ED50 [8]: 0.3 mg/kg; pIC50 [4]: 8.68; ED50 [6]: 0.3 mg/kg
CCOc1cc(C2(C#N)CCN(CC(=O)NO)CC2)ccc1OC,0.04,0.52,ED50 [8]: 0.04 mg/kg; pIC50 [4]: 8.30; ED50 [6]: 0.7 mg/kg
COc1ccc(C2(C#N)CCN(CC(=O)O)CC2)cc1OC(C)C,,> 100,
N#CC1(c2ccc(OC(F)F)c(OC3CCCC3)c2)CCN(CC(=O)NO)CC1,0.02,0.051,
COc1ccc(C2(C#N)CCN(CC(=O)O)CC2)cc1OC,,> 100,
COc1ccc(C2(C#N)CCN(C(C)(C)C(=O)NO)CC2)cc1OC1CCCC1,,34,
COc1ccc(C2(C#N)CCN(CC(=O)NO)CC2)cc1OC,0.23,4.7,
COc1ccc(C2(C#N)CCN(CC(=O)NO)CC2)cc1OC1CCCC1,0.04,0.08,ED50 [8]: 0.3 mg/kg; pIC50 [4]: 8.05; ED50 [6]: 0.3 mg/kg
CCOc1cc(C2(C#N)CCN(CC(=O)O)CC2)ccc1OC,,> 100,inhibition in vivo at 1 mg/kg [7]: 0%
COc1ccc([C@]2(C#N)CC[C@@H](C(=O)O)CC2)cc1OC1CCCC1 [CILOMILAST],1.7,,ED50 [8]: 4.5 mg/kg; ED50 [6]: 5.7 mg/kg
